Assay results taken from patent US20230286995A1, “METABOLICALLY STABLE PYRIMIDINYL DIHYDROQUINOXALINONES AS TUBULIN POLYMERIZATION INHIBITORS” (UNIVERSITY OF TENNESSEE RESEARCH FOUNDATION, priority 2022, published 2023).
Where a name gives a salt, the structure may show the parent alone. Read-outs that look alike come from different tables or passages of the source. Values belong to the molecule of their own block, whether it stands above or below them.

Experiments:
[1] = system: A375; assay: Cytotoxicity assay (MTS, 72 h); conditions: Homo sapiens;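 further: compounds tested from 0.1 nM up to 3 µM in four replicate wells, with absorbance read at 490 nm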
[2] = system: human melanoma and breast cancer cell lines; assay: Cytotoxicity, all tested cell lines of Table 1; type: cell-based; conditions: melanoma and breast lines of Table 1; for IC50: Homo sapiens, read-out: IC50 values, range over all tested cell lines
[3] = system: MDA-MB-468; assay: Cytotoxicity assay (MTS, 72 h); type: cell-based, human; conditions: Table 1, read-out: IC50 (nM) Breast MDA-MB-468
[4] = system: RPMI-7951; assay: Cytotoxicity assay (MTS, 72 h); type: cell-based; conditions: Homo sapiens, Table 1, read-out: IC50 (nM) Melanoma RPMI-7951
[5] = system: MDA-MB-453; assay: Cytotoxicity assay (MTS, 72 h); type: cell-based, human
[6] = system: MDA-MB-231; assay: Cytotoxicity assay (MTS, 72 h); type: cell-based; conditions: Homo sapiens
[7] = logP; type: physicochemical; conditions: Table 1; method not described
[8] = system: M14; assay: Cytotoxicity assay (MTS, 72 h); conditions: Homo sapiens
[9] = system: DU-145/VxR; assay: Cytotoxicity assay (MTS, 72 h); type: cell-based; conditions: Homo sapiens, DU-145, read-out: IC50 ± SEM (nM) DU-145/VXR
[10] = target: T1, tubulin protein from bovine brain (Bos taurus, UniProt P81947+Q6B856); assay: Tubulin polymerization assay (FIG. 5A); type: biochemical; conditions: 10 μM, cell-free
T1 construct: tubulin protein from bovine brain origin; purchased Cytoskeleton, Denver, Colo; host or cells: bovine brain
T1 sequence (P81947 whole entry): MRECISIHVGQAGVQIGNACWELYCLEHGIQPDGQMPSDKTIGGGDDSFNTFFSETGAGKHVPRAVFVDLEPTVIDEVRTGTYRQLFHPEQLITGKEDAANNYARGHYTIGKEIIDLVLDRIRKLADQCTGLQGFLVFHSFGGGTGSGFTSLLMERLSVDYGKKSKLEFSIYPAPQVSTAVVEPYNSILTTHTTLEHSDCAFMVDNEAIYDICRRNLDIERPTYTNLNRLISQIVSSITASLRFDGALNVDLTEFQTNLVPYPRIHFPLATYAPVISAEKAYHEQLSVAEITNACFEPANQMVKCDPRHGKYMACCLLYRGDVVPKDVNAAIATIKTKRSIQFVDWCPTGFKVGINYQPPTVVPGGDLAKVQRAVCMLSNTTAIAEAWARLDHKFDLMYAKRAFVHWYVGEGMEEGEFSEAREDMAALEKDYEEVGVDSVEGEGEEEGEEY
T1 sequence (Q6B856 whole entry): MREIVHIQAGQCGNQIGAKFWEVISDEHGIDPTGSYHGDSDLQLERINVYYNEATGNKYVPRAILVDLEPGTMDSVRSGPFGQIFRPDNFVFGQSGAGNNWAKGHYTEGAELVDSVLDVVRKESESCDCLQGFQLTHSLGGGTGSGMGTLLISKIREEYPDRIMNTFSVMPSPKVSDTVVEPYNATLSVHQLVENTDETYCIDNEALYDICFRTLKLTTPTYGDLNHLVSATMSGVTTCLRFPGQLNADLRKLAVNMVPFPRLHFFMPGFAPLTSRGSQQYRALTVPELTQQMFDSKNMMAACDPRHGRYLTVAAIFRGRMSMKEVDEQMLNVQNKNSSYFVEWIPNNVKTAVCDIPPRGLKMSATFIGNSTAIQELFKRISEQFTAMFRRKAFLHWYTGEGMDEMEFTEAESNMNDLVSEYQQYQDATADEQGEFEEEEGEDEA
Experimental: Tubulin polymerization reaction was initiated by adding 100 μL of tubulin protein from bovine brain origin (3 mg/ml, Cytoskeleton, Denver, Colo.) into 10 μM of test compounds in general tubulin buffer (80 mM PIPES, 2.0 mM MgCl2, 0.5 mM EGTA, and 1 mM GTP) according to the manufacturer protocol. The reaction kinetics were recorded in every thirty seconds for 1 h at 37° C. and a microplate reader equipped with absorbance settings at 340 nm wavelength was used for this purpose. The experiment was performed in duplicates.

[11] = system: MDA-MB-231/VxR; assay: Cytotoxicity assay (MTS, 72 h); type: cell-based; conditions: Homo sapiens, MDA-MB-231, read-out: IC50 ± SEM (nM) MDA-MB-231/VXR
[12] = system: taxane-resistant melanoma, breast, and lung cancer cells; assay: Cytotoxicity, regular and taxane-resistant lines of Table 2; type: cell-based; conditions: Homo sapiens; taxane-resistant melanoma, breast, and lung cancer cells; read-out: IC50 values, range against taxane-resistant cells
[13] = system: A375/TxR; assay: Cytotoxicity assay (MTS, 72 h); type: cell-based; conditions: Homo sapiens, read-out: IC50 ± SEM (nM) A375/TxR
[14] = system: A549/TxR; assay: cells; conditions: Homo sapiens, read-out: IC50 ± SEM (nM) A549/TxR
[15] = system: A-253 and Detroit 562; assay: Cytotoxicity in head and neck cancer cell lines; type: cell-based; conditions: Homo sapiens; FIG. 39A; read-out: IC50 values, range over A-253 and Detroit 562
Experimental: A panel of dihydroquinoxalinones were tested in two head and neck cancer cell lines, A-253 and Detroit 562. A-253 cells are a human salivary epidermoid carcinoma cell line, whereas Detroit 562 is a head and neck squamous cell carcinoma (HNSCC). Oral cancer is the most common type of head and neck cancer and more than 90% of oral cancers are either oral or oropharyngeal squamous cell carcinoma (SCC). A major clinical dilemma is chemotherapy efficiency targeted for head and neck squamous cell carcinoma (HNSCC). The inability to successfully complete cancer treatment utilizing a standard surgical approach due to an advanced stage of HNSCC and/or resistance of SCC cells to conventional chemotherapy and/or radiotherapy leads to a continuous search for new compounds with cytostatic activity and minor side effects.
FIGS. 39B and 39C illustrate the graphical representation of the data. […] For example, at treatment levels as low of 0.5 nM, 12k was able to prevent head and neck cancer cell proliferation almost completely, whereas it required 5 nM of 17ya to achieve similar antiproliferation.

[16] = in vitro; conditions: mouse, liver microsomes
[17] = system: Mia PaCa-2; assay: Cytotoxicity assay (MTS, 72 h); type: cell-based; conditions: Homo sapiens
[18] = system: PANC-1; assay: Cytotoxicity assay (MTS, 72 h); type: cell-based; conditions: Homo sapiens
Experimental: Mia PaCa-2 and PANC-1 cells were seeded in 96-well plates at 4000 and 5000 cells per well, respectively.
(§1) Cytotoxicity Assay. […] Each experiment consisted of four replicates.

[19] = system: PC3; assay: Cytotoxicity assay (MTS, 72 h); type: cell-based; conditions: Homo sapiens, PC-3; Table 6; read-out: IC50 (nM) Prostate cancer PC3
Excerpt: as §1

[20] = system: PC3/TxR; assay: Cytotoxicity assay (MTS, 72 h); type: cell-based; conditions: Homo sapiens, Table 6, paclitaxel-resistant, read-out: IC50 (nM) Prostate cancer PC3/TxR
Experimental: Biology. Cell culture and Reagents. […] MIA Paca-2 pancreatic cancer cells were cultured in media also supplemented with 2.5% horse serum. PANC-1 and PC-3 were cultured in RPMI 1640 medium (Gibco, Carlsbad, Calif.) supplemented with 10% FBS and 1% antibiotic/antimycotic mixture. […] For biological experiments, pyrimidine dihydroquinoxalinone derivatives were dissolved in DMSO to create 20 mM stock solutions and stored at −20° C. until use.
as §1

[21] = in vitro; conditions: human, liver microsomes
[22] = system: melanoma, breast, pancreatic and prostate cancer cell lines; assay: Cytotoxicity of Example 8 compounds; type: cell-based, human
Excerpt: as §1

[23] = system: M14/LCC6MDR1; assay: Cytotoxicity assay (MTS, 72 h); type: cell-based; conditions: Homo sapiens, read-out: IC50 ± SEM (nM) M14/LCC6MDR1
[24] = A-375, read-out: IC50 (nM) Melanoma A375, Table 1
[25] = Homo sapiens, MDA-MB-453, Table 1, read-out: IC50 (nM) Breast MDA-MB-453
[26] = MDA-MB-231, read-out: IC50 (nM) Breast MDA-MB-231, Table 1
[27] = M14, read-out: IC50 (nM) Melanoma M14
[28] = MDA-MB-231, read-out: IC50 (nM) Breast Cancer MDA-MB-231, Table 6

SMILES: COc1ccc2c(c1)NC(=O)CN2c1nc(Cl)nc(C)c1C [Compound 5q, 4-(2-chloro-5,6-dimethylpyrimidin-4-yl)-7-methoxy-3,4-dihydroquinoxalin-2(1H)-one]
IC50 [1, 24]: > 1000 nM
cytotoxic activity [2]: inactive
IC50 ([3]; Homo sapiens, MDA-MB-468): > 1000 nM
IC50 [4]: > 1000 nM
IC50 [5, 25]: > 1000 nM
IC50 [6, 26]: > 1000 nM
logP [7]: 2.76
IC50 [8, 27]: > 1000 nM

SMILES: CCNc1nc(N2CC(=O)Nc3cc(OC)ccc32)c2cccnc2n1 [Compound 5u, 4-(2-(ethylamino)pyrido[2,3-d]pyrimidin-4-yl)-7-methoxy-3,4-dihydroquinoxalin-2(1H)-one]
IC50 [1, 24]: 5.8 ± 1 nM
IC50 [2]: 0.4 to 26 nM
IC50 [3]: 10.5 ± 1.6 nM
IC50 [4]: 4.8 ± 0.8 nM
IC50 [5, 25]: 4.5 ± 0.9 nM
IC50 [6, 26]: 6.7 ± 1.2 nM
logP [7]: 2.51
IC50 [8, 27]: 5.4 ± 0.7 nM

SMILES: COc1ccc2c(c1)NC(=O)CN2c1nc(Cl)nc2c1CCC2 [Compound 5l, 4-(2-chloro-6,7-dihydro-5H-cyclopenta[d]pyrimidin-4-yl)-7-methoxy-3,4-dihydroquinoxalin-2(1H)-one]
IC50 [1, 24]: 5.5 ± 0.7 nM
IC50 [2]: 0.4 to 26 nM
IC50 ([3]; Homo sapiens, MDA-MB-468): 5.6 ± 2.2 nM
IC50 [4]: 6.8 ± 2.5 nM
IC50 [5, 25]: 3.7 ± 1.2 nM
IC50 [6, 26]: 25.7 ± 6.2 nM
logP [7]: 2.74
IC50 [8, 27]: 5.9 ± 1.5 nM

SMILES: CCNc1nc(N2CC(=O)Nc3cc(OC)ccc32)c2ncccc2n1 [Compound 5t, 4-(2-(ethylamino)pyrido[3,2-d]pyrimidin-4-yl)-7-methoxy-3,4-dihydroquinoxalin-2(1H)-one]
IC50 [9]: 1.8 ± 0.4 nM
IC50 [2]: 0.4 to 26 nM
IC50 [4]: 0.8 ± 0.1 nM
effect on microtubule polymerization [10]: significantly inhibited microtubule polymerization
IC50 [11]: 2.9 ± 0.4 nM
IC50 [12]: 0.3 to 5 nM
IC50 ([13]; Table 2, paclitaxel-resistant): 1.3 nM
logP [7]: 1.72
IC50 [14]: 5.4 ± 1.7 nM

SMILES: CCNc1nc2c(c(N3CC(=O)Nc4cc(OC)ccc43)n1)CCC2 [5v HCl, 4-(2-(ethylamino)-6,7-dihydro-5H-cyclopenta[d]pyrimidin-4-yl)-7-methoxy-3,4-dihydroquinoxalin-2(1H)-one]
IC50 [15]: 0.52 to 3.2 nM

SMILES: COc1ccc(N(C)c2nc(C)nc3ccccc23)cc1 [Verubulin, N-(4-methoxyphenyl)-N,2-dimethylquinazolin-4-amine, reference compound]
IC50 ([1]; A-375, read-out: IC50 ± SEM (nM) A375, Table 2): 0.7 ± 0.1 nM
IC50 [11]: 2 ± 0.4 nM
IC50 ([6]; MDA-MB-231, read-out: IC50 ± SEM (nM) MDA-MB-231, Table 2): 1.9 ± 0.4 nM
IC50 [13]: 0.7 ± 0.1 nM
IC50 ([8]; M14, read-out: IC50 ± SEM (nM) M14): 1 ± 0.1 nM

half-life at 1 μg/mL [16]: 13.6 min
microsomal CLint at 1 μg/mL [16]: 51 µL/min/mg
half-life at 1 μg/mL [21]: 80.3 min
microsomal CLint at 1 μg/mL [21]: 8.68 µL/min/mg
SMILES: COc1ccc2c(c1)NC(=O)CN2c1nc(NC2CC2)nc2c1CCC2 [Compound 12j, 4-(2-(cyclopropylamino)-6,7-dihydro-5H-cyclopenta[d]pyrimidin-4-yl)-7-methoxy-3,4-dihydroquinoxalin-2(1H)-one]
IC50 ([17]; Table 6, read-out: IC50 (nM) Pancreatic cancer Mia PaCa-2): 3.9 ± 0.6 nM
IC50 ([18]; Table 6, read-out: IC50 (nM) Pancreatic cancer PANC-1): 3.4 ± 0.6 nM
IC50 ([1]; A-375, read-out: IC50 (nM) Melanoma Cancer A375, Table 6): ~1.4 nM
IC50 [19]: 0.6 nM
IC50 ([5]; Homo sapiens, MDA-MB-453, Table 6, read-out: IC50 (nM) Breast Cancer MDA-MB-453): 1.1 ± 0.3 nM
IC50 [6, 28]: 2.2 ± 0.4 nM
IC50 [20]: 0.2 nM
IC50 ([8]; M14, read-out: IC50 (nM) Melanoma Cancer M14): 1.2 ± 0.3 nM

SMILES: CNC(=O)C(=O)Nc1cc(OC)ccc1Nc1nc(SC)nc2c1CCC2 [Compound 21, N1-(5-methoxy-2-((2-(methylthio)-6,7-dihydro-5H-cyclopenta[d]pyrimidin-4-yl)amino)phenyl)-N2-methyloxalamide]
cytotoxic potency [22]: little to no cytotoxic activity

SMILES: COc1ccc(Nc2nc(OC)nc3c2CCC3)c(N)c1 [Compound 20, 4-methoxy-N1-(2-methoxy-6,7-dihydro-5H-cyclopenta[d]pyrimidin-4-yl)benzene-1,2-diamine]
cytotoxic potency [22]: little to no cytotoxic activity

SMILES: COc1cc2c(c(OC)c1OC)-c1ccc(OC)c(=O)cc1[C@@H](NC(C)=O)CC2 [Colchicine, reference compound]
IC50 [23]: > 1000 nM

logP [7]: 1.96
SMILES: COc1ccc2c(c1)NC(=O)CN2c1cc(C)nc2cccnc12 [Compound 5s, 7-methoxy-4-(2-methyl-1,5-naphthyridin-4-yl)-3,4-dihydroquinoxalin-2(1H)-one]
IC50 [1, 24]: 15 ± 2.1 nM
IC50 [2]: 13 to 24 nM
IC50 ([3]; Homo sapiens, MDA-MB-468): 18.5 ± 4.1 nM
IC50 [4]: 14.4 ± 2.4 nM
IC50 [5, 25]: 12.9 ± 2.3 nM
IC50 [6, 26]: 23.9 ± 4.1 nM
IC50 [8, 27]: 18.3 ± 2.9 nM

SMILES: Cc1nc2c(c(N3CC(=O)Nc4cc(OCc5ccccc5)ccc43)n1)CCC2 [Compound 12p, 7-(benzyloxy)-4-(2-methyl-6,7-dihydro-5H-cyclopenta[d]pyrimidin-4-yl)-3,4-dihydroquinoxalin-2(1H)-one]
IC50 ([17]; Table 6, cells printed in μM, read-out: IC50 Pancreatic cancer Mia PaCa-2): > 1250 nM
IC50 ([18]; Table 6, cells printed in μM, read-out: IC50 Pancreatic cancer PANC-1): > 1200 nM
cytotoxic potency [22]: least in potency
IC50 [6, 28]: 423 ± 110 nM

SMILES: COc1ccc2c(c1)NC(=O)CN2c1nc(Cl)nc2c1COC2 [Compound 5p, 4-(2-chloro-5,7-dihydrofuro[3,4-d]pyrimidin-4-yl)-7-methoxy-3,4-dihydroquinoxalin-2(1H)-one]
IC50 [1, 24]: 31.8 ± 4.4 nM
IC50 [2]: 19 to 37 nM
IC50 [3]: 22.8 ± 4.6 nM
IC50 [4]: 27.2 ± 3.9 nM
IC50 ([5]; Table 1, read-out: IC50 (nM) Breast MDA-MB-453): 19.3 ± 3.5 nM
IC50 [6, 26]: 36.8 ± 4.5 nM
logP [7]: 1.47
IC50 [8, 27]: 23.3 ± 3 nM
